According to patent publication US7674595B1, “Solid state NMR method for screening cell membrane protein binding drug candidates” (priority 2006, dated 2010):

Experiments:
[1] = molecular target: M2 Protein from Influenza A virus (Influenza A virus, UniProt P06821); format: binding; settings: spectra with AMT vs without AMT, FIG. 6
[2] = tested on: gramicidin A channel; assay: 17O solid-state NMR of 17O-[D-Leu10]-gA in AAO-aligned DMPC bilayers, reversible ion binding; settings: 2.4 M KCl, approx. double occupancy of K+ in the dimeric channel, channel perpendicular to B0, 19.6 T, 40° C., reversible by EDTA wash
Protocol: The ^17O-[D-Leu^10]-gA was prepared as described previously (29), resulting in material with 57% enrichment of ^17O isotope (H^172O from Cambridge Isotope Labs, Andover, Mass.). The dry peptide was codissolved with DMPC in a 1:16 molar ratio in benzene/ethanol (20:1 v/v) solvent (28) and pipetted onto the nanoporous support. The organic solution containing gA and DMPC was rapidly adsorbed. This commercial substrate, “20 nm” Anodisc® 13 membranes (Whatman International), is shaped as disks 13 mm in diameter that are approximately […] thick. For ^31P NMR experiments AAO disks were cut into strips less than 5 mm in width to fit into a rectangular approximately 600 μL sample coil. We have also designed a special coil for ^17O NMR that required no disk cutting. Typically, stacks of up to 40 AAO strips or disks were employed for NMR measurements. The disks have a well-aligned through-film porous structure with nanochannels directed perpendicular to the disk outer surface.
The manufacturer specifies that these nanoporous substrates have a 20-nm filtration diameter cutoff. […]
The Leu^10 carbonyl in the gramicidin A pore is one of three carbonyl sites involved in K^+ binding. We have monitored K^+ binding using the ^17O resonance of selectively labeled Leu^10 carbonyls of gramicidin A dimers incorporated into DMPC bilayers and aligned using the AAO method. […]

[3] = tested on: gramicidin A channel; settings: DMPC-gA aligned by glass slides, channel parallel to B0; cited from earlier work

Sequence of M2 Protein from Influenza A virus (P06821 whole entry): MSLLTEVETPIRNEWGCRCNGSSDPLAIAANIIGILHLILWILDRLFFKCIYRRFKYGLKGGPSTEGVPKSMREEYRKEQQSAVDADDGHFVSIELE

With `NC12CC3CC(CC(C3)C1)C2` [Amantadine] the “NMR signal changes upon binding drug (spectral shift of M2 protein)” value [1] was “dramatic changes”.
In the case of `[Cl-].[K+]` [KCl], the “downfield shift Δδ of the 17O resonance of Leu10 carbonyl upon ion binding (δ⊥)” value [2] is given as “≈ 18 ppm” and the “shift of the 17O resonance at δ∥ upon K+ binding” value [3] is given as 40 ppm.
